Patent publication US20240060131A1, “METHOD FOR IDENTIFYING AND/OR REGULATING SENESCENCE” (INSTITUTE OF ZOOLOGY, CHINESE ACADEMY OF SCIENCES, priority 2020, published 2024)

What was measured:
[1] = system: old mice; test: Abacavir injected to articular cavity of old mice (joint aging); assay type: in vivo, mouse
Procedure: 10 μl Abacavir (in PBS with 2% DMSO) at the concentration of 10 mg/ml was injected to knee joint cavities of mice of 22 months old (n=12), injected once a week. Grip strength test was performed 4 weeks, 8 weeks and 12 weeks after the first injection. Motor coordination and balance, motor ability and Micro-CT were performed 14 weeks after the first injection, samples were taken, i.e., joints of mice hind limbs were taken out, one was frozen in liquid nitrogen and the other was fixed in 4% PFA.
(§1) Grip strength of the limbs was measured by Grip strength meter (Panlab Grip Strength Meter, LE902) in accordance with the manufacturer's instructions. In brief, mice were put on the top of grip strength meter and pulled along the grid at a constant rate, until mice loosened its grip. The peak tension in each of the 10 repeats was recorded, and the mean value was calculated as grip strength for each mouse.
Mice were placed on a running machine (SANS Bio Instrument, SA101) to test the motor ability of mice in accordance with the manufacturer's instructions. In particular, slope of runway was set as 5°, electrical stimulation was 2 mA, the running speed was set as follows: an initial velocity of 5 m/min for 5 min; then accelerating to final velocity of 25 m/min with an accelerated rate of 1 m/min 2, 20 mins in total. First, mice were trained for three consecutive days, and tested on the fourth day. The times of electrical stimulation, and the run distance in […] were recorded.
Micro-CT (PE Quantum FX) was performed in accordance with the manufacturer's instructions. In brief, mice were anesthetized and placed in the instrument, scanning parameters for Micro-CT were voltage 50Kvp, power 40 W, 6-frame superposition, field 4 cm×4 cm. Three-dimensional images were screenshot after scan and reconstruction, and bone density was calculated by Ansys software.
5.2. Retrovirus inhibitor Abacavir delayed joint aging of old mice Retrovirus inhibitor Abacavir was injected to articular cavity of old mice (23 months old), concentration was 10 mg/ml, once a week, 10 μl every time (as shown by FIG. 32A). (n=10)

[2] = system: WS hMPC; test: Ki67 and SA-β-gal staining of WS hMPC treated with retrovirus inhibitors; assay type: cell-based, human; conditions: WS hMPCs, 10 μM lamivudine (3TC), abacavir (0.2 μM), Raltegravir, vs DMSO solvent control
Procedure: Cells seeded on coverslip (Thermo Fisher Scientific) were washed by PBS, fixed in 4% paraformaldehyde (PFA), permeabilized in 0.4% Triton X-100, blocked by 10% donkey serum. The coverslip was incubated with primary antibody at 4° C. in blocking buffer, then incubated with secondary antibody at room temperature for 1 h. Nucleus was labelled by Hoechst 33342 (Invitrogen).
For treatment by endogenous viral reverse transcriptase inhibitor and integrase inhibitor, hMPCs were treated by […] abacavir, lamivudine (3TC) and Raltegravir, respectively, medium was replaced every 3 days, followed by new treatment. After treatment of two cell passages, cells were used for Ki67 immunofluorescence, SA-β-gal staining and RNA/DNA extraction.
Cells were fixed by a buffer containing 2% (w/v) formaldehyde and 0.2% (w/v) glutaraldehyde for 5 min, and treated by staining buffer containing 1 mg/mL X-gal at 37° C. overnight.
10 μM lamivudine (3TC), abacavir (0.2 μM) and Raltegravir were added to WS hMPC, respectively, incubated at 37° C., and fresh medium containing each drug was replaced every two days, solvents dissolving above-mentioned drug with DMSO added at a corresponding amount were used as control.
Above-mentioned cells were stained by Ki67 and SA-β-gal.

[3] = system: HERVK; test: HERVK transposition events (reporter, flow cytometry) and DNA copy number in WS hMPC; assay type: cell-based, human; conditions: 10 days after incubation
Procedure: The experiment for detecting DNA of HERVK gene by single molecule DNA-FISH was conducted by the National Key Laboratory of Agricultural Microbiology, Huazhong Agricultural University. Senescent cells were successively treated by RNase A (100 μg/mL, dissolved in 2×SSC) at 37° C. for 1 h, treated by 70% formamide dissolved in 2×SSC at 72° C. for 10 min, treated by precooled ethanol (concentration from 80%, 90% to 100%, each treatment for 1 min). Then cells were incubated with HERVK […] specific probe pairs (each probe 10 μM) in hybridization solution (10% deionized formamide, 2×SSC, 10% dextran sulfate and 2 mM VRC) at 42° C. overnight. Washed 3 times by washing buffer (2×SSC, 30% formamide, 0.1% Triton-X 100 and 2 mM VRC), cells were incubated with amplification probes (SFSP-001 and SFTP-001, Spatial FISH, Co., Ltd.) and fluorescent probes (SFFP-001, Spatial FISH, Co., Ltd) together, HERVK DNA was subjected to single molecule detection. Finally, cells were counterstained by DAPI and imaged by confocal microscope.
In brief, to assess transposition events occurred in HERVK during aging process, wild type mesenchymal stem cells of early passage and late passage (P7 generation and P14 generation) were transfected with HERVK reporter plasmid, and meanwhile co-transfected with dsRed, a vector expressing red fluorescence (obtained from Xu Xingzhi's Laboratory, School of Basic Medicine, Shenzhen University) to calculate transfection probability. After the confluence of cells, cells were digested into single cell, and resuspended by PBS, analyzed by flow cytometer BD Influx, the ratio of cells positive for green fluorescence to cells positive for red fluorescence was the probability of transposition events occurred in HERVK.
To construct HERVK transposition reporter vector, first, above-mentioned HERVK fragment was cloned to dsRed vector having KpnI enzyme site mutant (obtained from Xu Xingzhi's Laboratory, School of Basic Medicine, Shenzhen University). GFP reporter (SEQ ID NO: 152) was obtained by PCR amplification from L 1 reporter (gifted by Prof. Wang Jichang, Sun Yat-sen University in Guangzhou, China), GFP reporter was inserted to dsRed-HERVK through KpnI site, contructing HERVK transposition reporter vector.
To assess transposition events occurred for HERVK during aging process, cells of early and late generations were transfected with HERVK reporter plasmid, and meanwhile co-transfected with a vector expressing red fluorescence to calculate transfection probability. After confluence of cells, cells were digested into single cell, and resuspended with PBS, analyzed by flow cytometer BD Influx, the ratio of cells positive for green fluorescence to cells positive for red fluorescence was the probability of transposition events occurred in HERVK. […]

[4] = system: old mice; test: Long-term oral administration of Abacavir in drinking water to old mice; assay type: in vivo, mouse; conditions: for mice died: n=23
Procedure: Abacavir was dissolved in drinking water containing 0.4% DMSO at 2 mg/ml, mice of 18 months old were administered by feeding the water daily (n=23). The weight, hollow back, hair, skin, eye (cataract) and activity score of mice were measured 6 weeks, 12 weeks and 24 weeks after administration, grip strength was measured and a survival curve was plotted. […]
as §1
Mice were placed in the end of any arm of Y maze (trisection radiation maze, consisting of 3 arms with equal length (50 cm×18 cm×35 cm), the intersection angle between every two arms was 120 degree), allowed to explore freely for 5 min, animal behavior changes in 5 min were recorded by camera system, and the short-term spatial memory ability of mice was detected by recording the total times that the mice entered the arms and the rotations that the mice entered in turn the three arms of the Y maze.
Retrovirus inhibitor Abacavir was dissolved in drinking water for mice (containing 0.3% DMSO) at a concentration of 2 mg/ml (n=23), and mice of 18 months old was administered daily (as shown by FIG. 33A).

[5] = system: old mice; test: Long-term intraperitoneal injection of Ratelgravir to old mice; assay type: in vivo, mouse; conditions: 16 weeks
Procedure: Ratelgravir was dissolved at 50 mg/ml in 30% PEG300+2% Tween80+2% DMSO, and intraperitoneally injected to mice at 18 months old, […] each time, twice a week (n=23). The weight, hollow back, hair, skin, cataract and activity score of mice were measured 8 weeks and 16 weeks after first injection, grip strength was measured and a survival curve was plotted.
as §1
The retrovirus integrase inhibitor Ratelgravir was dissolved in 30% PEG300+2% Tween80+2% DMSO at a concentration of 50 mg/ml, mice at 18 months old was injected intraperitoneally, […], 200 μl/injection, twice a week (as shown by FIG. 34A).

[6] = system: cGAS-STING pathway; test: cGAS-STING innate immune pathway and SASP in hMPCs (Western blot, RT-qPCR); assay type: cell-based, human; conditions: knockdown in HGPS and WS hMPCs
Procedure: Cells were lysed in 1×SDS buffer (100 mM Tris-HCl, pH 6.8, 10% glycerol, 2% SDS and 2%2-mercaptoethanol), boiled for 10 min at 105° C. Protein concentration was measured by BCA kit. Cell lysate was subjected to SDS-PAGE electrophoresis, then transferred to PVDF membrane (Millipore). The membrane was incubated with primary antibody, incubated with secondary antibody conjugated to HRP after washing, then blotted with substrate, the substrate was the mixture of 1000 μL substrate A and 3 μL substrate B (substrate A: 0.2 mM cumaric acid, 1.25 mM luminal, 0.1 M Tris-HCl, pH 8.5; substrate B: 3% H2O2) or Super Signal West Femto Maximum Sensitivity Substrate (Thermo Fisher Scientific). Images were taken by Image Lab software. Quantification was conducted by ImageJ.
In accordance with the manufacturer's instructions, total RNA of cell was extracted by TRIzol (Thermo Fisher Scientific); reverse transcribed into cDNA with GoScript reverse transcription system (Promega) for RT-qPCR; RT-qPCR was conducted with THUNDERBIRD qPCR Mix (TOYOBO) and CFX384 real-time system (Bio-Rad Laboratories, Inc.).
To further study the activation of cGAS-STING DNA sensing pathway, the following key characteristics in different senescent hMPCs (including RS, HGPS and WS) and fibroblasts were detected: […] TANK binding kinase 1 (TBK1) and IFN regulating factor 3 (IRF3) as well as proinflammatory cytokines (e.g., IL1B andIL6), these factors were regarded as SASP factors.

[7] = articular cavity injection, P value not significant
[8] = drinking water 2 mg/ml, 24 weeks
[9] = drinking water 2 mg/ml, 30 weeks

## Nc1nc(NC2CC2)c2ncn([C@H]3C=C[C@@H](CO)C3)c2n1 [Abacavir, abacavir]
[1]; 15 weeks after injecting
  bone density of joint: increased
[1]; RT-qPCR of joint RNA
  expression of senescence-associated protein p21 in joint: decreased
  level of inflammatory factor IL1B in joint: decreased
  level of inflammatory factor IL6 in joint: decreased
[1]; [7]
  forced treadmill running distance: improve
  forced treadmill running time: improve
[1]; articular cavity injection, trend, P value not significant
  forced treadmill shocked time: reduce
[1]; old mice (23 months old), articular cavity 10 mg/ml, 10 μl once a week, 8 weeks after injecting, vs vehicle
  limb tension of mice: significantly was enhanced
[2]
  Ki67 positive cells: increase
  SA-β-gal positive cells: reduce
[2]; listed as abacavir
  Ki67 positive cells: significantly were increased
  SA-β-gal positive cells: significantly were decreased
[3]
  HERVK DNA copy number: decreases
  HERVK transposition events: reduces
[3]; listed as abacavir
  HERVK DNA copy number: effectively reduce
  HERVK transposition events: effectively reduce
[4]; 24 weeks after administering, control group 2 died
  mice died: 0
[4]; 30 weeks after administering, control group 4 died
  mice died: 1
[4]; Y Maze, 30 weeks
  spatial short-term memory ability: enhanced
[4]; [8]
  condition of hair: improve
  condition of hollow back: improve
  mobility ability of mice: enhance
[4]; [9]
  Y Maze rotations that the mice entered in turn the three arms: increased
  Y Maze total times that the mice entered the arms: increased
[4]; drinking water 2 mg/ml, up to 30 weeks
  survival rate of old mice: improve
[4]; mice of 18 months old, 2 mg/ml in drinking water daily, 12 weeks
  limb tension of mice: significantly enhanced

## Cc1nnc(C(=O)NC(C)(C)c2nc(C(=O)NCc3ccc(F)cc3)c(O)c(=O)n2C)o1 [Raltegravir]
[2]
  Ki67 positive cells: significantly were increased
  SA-β-gal positive cells: significantly were decreased
[2]; listed as Ratelgravir
  Ki67 positive cells: increase
  SA-β-gal positive cells: reduce
[5]; i.p. twice a week
  condition of hair: improve
  condition of hollow back: improve
[5]; mice at 18 months old, 50 mg/ml, 200 μl i.p. twice a week, vs vehicle
  limb tension of mice: significantly was increased

## shSTING-2 (guide GCCCGGATTCGAACTTACAAT; chemistry not given here)
[6]
  SASP: alleviated
  cell senescence: alleviated
  phosphorylation level of IRF3: reduced
  phosphorylation level of RelA: reduced
  phosphorylation level of TBK1: reduced
